{"source": "paper PMC6345161", "about": "(Journal of medicinal chemistry, 2018)", "key": {"MRSA (ATCC BAA-44)": {"test_system": "MRSA (ATCC BAA-44)", "experiment": "MRSA proliferation assay", "assay_type": "cell-based, Staphylococcus aureus"}, "E. coli GroEL": {"biological_target": "E. coli GroEL (Escherichia coli, UniProt P0A6F5)", "sequence (P0A6F5 2-548)": "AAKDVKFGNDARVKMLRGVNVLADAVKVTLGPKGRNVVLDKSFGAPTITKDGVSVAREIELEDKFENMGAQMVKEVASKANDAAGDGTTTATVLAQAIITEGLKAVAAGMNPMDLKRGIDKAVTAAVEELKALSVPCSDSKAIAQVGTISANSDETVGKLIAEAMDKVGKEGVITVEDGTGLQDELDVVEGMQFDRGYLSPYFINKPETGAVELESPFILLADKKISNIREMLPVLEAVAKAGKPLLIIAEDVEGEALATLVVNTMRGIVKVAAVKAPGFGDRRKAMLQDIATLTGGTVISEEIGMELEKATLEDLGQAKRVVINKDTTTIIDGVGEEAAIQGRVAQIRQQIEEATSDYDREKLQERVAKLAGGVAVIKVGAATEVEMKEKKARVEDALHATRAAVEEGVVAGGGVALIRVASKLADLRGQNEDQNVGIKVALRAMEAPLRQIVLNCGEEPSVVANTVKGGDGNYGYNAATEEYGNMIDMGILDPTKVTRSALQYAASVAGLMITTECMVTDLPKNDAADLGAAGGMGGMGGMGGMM", "experiment": "Isothermal titration calorimetry binding to GroEL", "details": "for T∆S: 20°C (293.15 K); for Stoichiometry n, GroELmonomer : Molecule: single-site binding model; for ∆G: calculated with Gibbs equation at 20°C"}, "S. aureus (ATCC 25923)": {"test_system": "S. aureus (ATCC 25923)", "experiment": "S. aureus proliferation assay", "assay_type": "cell-based, Staphylococcus aureus"}, "[1]": {"test_system": "MRSA strain (ATCC BAA-44)", "experiment": "12-day serial passage MRSA resistance assay", "assay_type": "cell-based, Staphylococcus aureus", "details": "for MRSA resistance generation: 12 passages over 12 days"}, "native rhodanese": {"biological_target": "T1, native rhodanese (Bos taurus, UniProt P00586)", "T1 sequence (P00586 2-297 limits assumed)": "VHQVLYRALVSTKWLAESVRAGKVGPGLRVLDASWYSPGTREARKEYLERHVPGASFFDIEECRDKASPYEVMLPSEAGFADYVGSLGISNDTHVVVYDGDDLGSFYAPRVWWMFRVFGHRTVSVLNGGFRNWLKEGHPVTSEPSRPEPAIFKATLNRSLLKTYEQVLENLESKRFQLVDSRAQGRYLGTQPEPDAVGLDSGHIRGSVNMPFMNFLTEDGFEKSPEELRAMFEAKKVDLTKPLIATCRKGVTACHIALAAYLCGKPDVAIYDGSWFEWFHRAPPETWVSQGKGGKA", "experiment": "Native Rho enzymatic reporter counter-screen", "assay_type": "biochemical"}, "[2]": {"biological_target": "T2, native malate dehydrogenase (Sus scrofa, UniProt P00346)", "T2 sequence (P00346 25-338)": "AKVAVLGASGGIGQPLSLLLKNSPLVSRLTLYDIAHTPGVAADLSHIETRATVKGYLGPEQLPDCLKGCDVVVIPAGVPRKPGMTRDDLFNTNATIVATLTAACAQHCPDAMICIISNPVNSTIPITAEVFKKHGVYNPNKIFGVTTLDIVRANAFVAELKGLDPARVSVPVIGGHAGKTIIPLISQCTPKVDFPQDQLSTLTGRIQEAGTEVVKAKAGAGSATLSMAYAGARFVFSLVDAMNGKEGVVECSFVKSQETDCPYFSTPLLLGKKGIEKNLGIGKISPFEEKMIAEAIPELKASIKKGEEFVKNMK", "experiment": "Native MDH enzymatic reporter counter-screen", "assay_type": "biochemical"}, "ESKAPE pathogens": {"test_system": "ESKAPE pathogens", "details": "cited from earlier work"}}, "data": [{"smiles": "O=S(=O)(Nc1ccc(-c2nc3cc(NS(=O)(=O)c4ccc(Cl)cc4)ccc3o2)cc1)c1ccc(Cl)cc1", "note": "[2c-p]", "values": [{"measurement": "inhibition of MRSA proliferation", "setting": "MRSA (ATCC BAA-44)", "value": "most potent and selective inhibitors of MRSA proliferation"}]}, {"smiles": "NCc1ccc(S(=O)(=O)Nc2ccc3oc(-c4ccc(NS(=O)(=O)c5ccc(Cl)s5)cc4)nc3c2)cc1", "note": "[20L]", "values": [{"measurement": "Stoichiometry n, Molecule : GroELmonomer", "setting": "E. coli GroEL; ITC, 20°C", "value": "1.67 ± 0.39"}, {"measurement": "∆H", "setting": "E. coli GroEL; ITC, 20°C", "value": "-8.30 ± 0.52", "unit": "kcal/mol"}, {"measurement": "∆S", "setting": "E. coli GroEL; ITC, 20°C", "value": "0.003 ± 0.002", "unit": "kcal/molK"}, {"measurement": "T∆S", "setting": "E. coli GroEL; ITC", "value": "0.84 ± 0.55", "unit": "kcal/mol"}, {"measurement": "Stoichiometry n, GroELmonomer : Molecule", "setting": "E. coli GroEL; ITC, 20°C", "value": "0.6 ± 0.14"}, {"measurement": "Stoichiometry n, Molecule : GroELoligomer", "setting": "E. coli GroEL; ITC, 20°C, molecules per GroEL tetradecamer", "value": "23.3 ± 5.4"}, {"measurement": "∆G", "setting": "E. coli GroEL", "value": "-9.14 ± 0.06", "unit": "kcal/mol"}, {"measurement": "inhibition of MRSA proliferation", "setting": "MRSA (ATCC BAA-44)", "value": "only moderately active"}, {"measurement": "inhibition of S. aureus proliferation", "setting": "S. aureus (ATCC 25923)", "value": "only moderately active"}]}, {"smiles": "NCc1ccc(S(=O)(=O)Nc2ccc(-c3nc4cc(NS(=O)(=O)c5ccc(Cl)s5)ccc4o3)cc2)cc1", "note": "[20R]", "values": [{"measurement": "Stoichiometry n, Molecule : GroELmonomer", "setting": "E. coli GroEL; ITC, 20°C", "value": "1.30 ± 0.27"}, {"measurement": "∆H", "setting": "E. coli GroEL; ITC, 20°C", "value": "-9.78 ± 0.80", "unit": "kcal/mol"}, {"measurement": "∆S", "setting": "E. coli GroEL; ITC, 20°C", "value": "0.001 ± 0.003", "unit": "kcal/molK"}, {"measurement": "T∆S", "setting": "E. coli GroEL; ITC", "value": "0.20 ± 0.82", "unit": "kcal/mol"}, {"measurement": "Stoichiometry n, GroELmonomer : Molecule", "setting": "E. coli GroEL; ITC, 20°C", "value": "0.77 ± 0.16"}, {"measurement": "∆G", "setting": "E. coli GroEL", "value": "-9.98 ± 0.26", "unit": "kcal/mol"}, {"measurement": "inhibition of MRSA proliferation", "setting": "MRSA (ATCC BAA-44)", "value": "only moderately active"}, {"measurement": "MRSA resistance generation", "setting": "[1]", "value": "unable to generate resistance"}, {"measurement": "inhibition of S. aureus proliferation", "setting": "S. aureus (ATCC 25923)", "value": "only moderately active"}]}, {"smiles": "O=[N+]([O-])c1cc(S(=O)(=O)Nc2ccc(-c3nc4cc(NS(=O)(=O)c5ccc(Cl)s5)ccc4o3)cc2)ccc1Cl", "note": "[28R]", "values": [{"measurement": "inhibition of native rhodanese", "setting": "native rhodanese", "value": "only to a minor extent"}, {"measurement": "inhibition of native malate dehydrogenase", "setting": "[2]", "value": "only to a minor extent"}, {"measurement": "MRSA resistance generation", "setting": "[1]", "value": "rapidly developed resistance"}, {"measurement": "sensitivity of resistant MRSA after culture without inhibitor", "setting": "[1]; two days without inhibitors (24 h agar, 24 h liquid)", "value": "regained sensitivity"}]}, {"smiles": "Cc1ccc(S(=O)(=O)Nc2ccc(-c3nc4ccc(NS(=O)(=O)c5ccc(C)cc5)cc4[nH]3)cc2)cc1", "note": "[compound 1]", "values": [{"measurement": "antibacterial effects against ESKAPE pathogens", "setting": "ESKAPE pathogens", "value": "no antibacterial effects"}]}, {"smiles": "O=S(=O)(Nc1ccc(-c2nc3cc(NS(=O)(=O)c4cccs4)ccc3o2)cc1)c1cccs1", "note": "[compound 6]", "values": [{"measurement": "inhibition of MRSA proliferation", "setting": "MRSA (ATCC BAA-44)", "value": "most potent and selective inhibitors of MRSA proliferation"}]}, {"smiles": "CN[C@H](CC(C)C)C(=O)N[C@H]1C(=O)N[C@@H](CC(N)=O)C(=O)N[C@H]2C(=O)N[C@H]3C(=O)N[C@H](C(=O)N[C@H](C(=O)O)c4cc(O)cc(O)c4-c4cc3ccc4O)[C@H](O)c3ccc(c(Cl)c3)Oc3cc2cc(c3O[C@@H]2O[C@H](CO)[C@@H](O)[C@H](O)[C@H]2O[C@H]2C[C@](C)(N)[C@H](O)[C@H](C)O2)Oc2ccc(cc2Cl)[C@H]1O", "note": "[vancomycin, reference compound]", "values": [{"measurement": "MRSA resistance generation", "setting": "[1]", "value": "retained sensitivity"}]}]}
